Key:
[1] = system: DMPP-evoked contractions of the guinea-pig colon; test: Selectivity test: cholinergically-mediated contractions of guinea-pig colon evoked by the nicotinic receptor agonist DMPP; conditions: selectivity of action
Method: To test for selectivity of action, compounds are tested for their ability to antagonise cholinergically-mediated contractions of the guinea-pig colon, evoked by the nicotinic receptor agonist. DMPP (1,1-dimethyl-4-phenyl-piperazinium iodide). For these experiments, tissues and equipment are set up as for the above, 5HT4 receptor experiments. After sensitization, non-cumulative dose response curves are constructed to DMPP. Test compounds are incubated with the tissues as above, and a second dose response curve to DMPP created. Results are given as mean pKB± SEM values for each antagonists.

5-HT4 receptor = target: T1, 5-HT4 receptor (Cavia porcellus, UniProt O70528); test: 5-HT4 receptor antagonist activity: 5-HT-evoked contractions of guinea-pig distal colon longitudinal muscle-myenteric plexus (LMMP) preparations; conditions: mean ± SEM, n=7, antagonism of 5-HT dose response curve, 45 minutes incubation
T1 construct: Longitudinal muscle-myenteric plexus (LMMP) preparations, 2-3cm long, are obtained from the distal colon region; from tissue; host or cells: guinea-pig distal colon longitudinal muscle-myenteric plexus
Method: 5-HT4 RECEPTOR ANTAGONIST ACTIVITY
Male Dunkin Hartley guinea-pigs, weighing 200-300 g are used. Longitudinal muscle-myenteric plexus (LMMP) preparations, 2-3cm long, are obtained from the distal colon region. These are suspended under a 0.5 g load in isolated tissue baths containing Krebs Henseleit solution (NaCl 118 mM, KCl 4.7mM KH2PO4 1.2mM MgSO4 7H2O 1.2mM, Glucose 11.1mM, NaHCO3 25mM, CaCl2 6H2O 2.5mM) bubbled with 5% CO2 in O2, maintained at 37° C. and containing 1uM Granisetron and 0.1uM Methiothepin to block 5HT3 and 5HT1-like receptors respectively. 100uM Pargyline is also added to the tissues at the start of the experiment. Tissues are left for 15 minutes to equilibrate and then exposed to 5-HT at 0.1uM every 15 minutes until a uniform response is achieved. Following a half hour period for tissues to stabilise, non-cumulative dose response curves to 5-HT are constructed in all tissues. When base-lines have returned to normal, test compounds are added in the reservoirs of the tissue set-ups and washed in to the tissues. Tissues are incubated with the antagonists for 45 minutes after which a second non-cumulative dose response curve to 5-HT is constructed.
To test for selectivity of action, compounds are tested for their ability to antagonise cholinergically-mediated contractions of the guinea-pig colon, evoked by the nicotinic receptor agonist. […]

T1 sequence (O70528 whole entry): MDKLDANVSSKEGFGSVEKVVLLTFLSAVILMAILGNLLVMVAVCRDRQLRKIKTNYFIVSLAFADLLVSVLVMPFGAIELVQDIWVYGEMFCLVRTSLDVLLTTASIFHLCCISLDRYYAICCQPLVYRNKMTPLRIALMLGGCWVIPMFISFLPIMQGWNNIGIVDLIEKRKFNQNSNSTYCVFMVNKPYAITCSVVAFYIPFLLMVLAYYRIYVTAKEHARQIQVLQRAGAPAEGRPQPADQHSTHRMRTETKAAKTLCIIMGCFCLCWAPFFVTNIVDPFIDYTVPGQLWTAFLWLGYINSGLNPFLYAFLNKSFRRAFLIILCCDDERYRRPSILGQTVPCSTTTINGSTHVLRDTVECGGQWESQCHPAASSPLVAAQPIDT

CCCCN1CCC(CNC(=O)c2c3n(c4ccccc24)C(O)CCO3)CC1 (racemic) [compound of formula (I), (±)-N-[(1-butyl-4-piperidinyl)methyl]-3,4-dihydro-4-hydroxy-2H-[1,3]oxazino[3,2-a]indole-10-carboxamide]
effect on DMPP-evoked contractions [1]: did not significantly affect DMPP-evoked contractions
Kb (5-HT4 receptor): 3.39 nM

— patent publication US20010031751A1, “Pharmaceuticals” (SmithKline Beecham p.l.c., priority 1997, published 2001)
